Laboratory results taken from ChEMBL document CHEMBL1201862, “PubChem BioAssay data set” (2004).
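Tested at 5 concentrations; 48 h exposure; 96-well plates; endpoints linearly interpolated, else capped at highest concentration. Here, GI50 denotes the concentration required for 50% inhibition of growth.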 Active and inactive are the calls of the source. Rule as the data show it: active = GI50 up to about 1.1 µM and inactive = higher.

Experiments:
Assay in all cases: NCI tumour cell line growth inhibition, 48 h
A498 = test system: A498
SF-539 = test system: SF-539
RXF 393 = test system: RXF 393
UO-31 = test system: UO-31
HOP-62 = test system: HOP-62
Malme-3M = test system: Malme-3M
SNB-75 = test system: SNB-75
MOLT-4 = test system: MOLT-4
U-251 = test system: U-251
ACHN = test system: ACHN
SF-268 = test system: SF-268
NCI-H23 = test system: NCI-H23
SF-295 = test system: SF-295
UACC-62 = test system: UACC-62
SR = test system: SR

Measured: GI50

N#Cc1ccc(/C=C(/C(=O)c2ccccc2)c2ccccc2)cc1
inactive: A498 17.9 µM | SF-539 21.2 µM | RXF 393 17.8 µM | UO-31 14.2 µM | HOP-62 17.9 µM | Malme-3M 12.6 µM | SNB-75 27.2 µM | MOLT-4 2.99 µM | U-251 12.4 µM | ACHN 15.5 µM | SF-268 15.2 µM | NCI-H23 15.7 µM | SF-295 9.55 µM | UACC-62 7.48 µM | SR 2.62 µM

Cc1c(C(=O)C/C(=N/NC(=O)CC#N)C(N)=O)[n+]([O-])c2ccccc2[n+]1[O-]
inactive: A498 > 100 µM | SF-539 37.8 µM | RXF 393 > 100 µM | UO-31 > 100 µM | HOP-62 > 100 µM | Malme-3M 32.3 µM | SNB-75 > 100 µM | MOLT-4 35.6 µM | U-251 35.7 µM | ACHN 54 µM | SF-268 34.3 µM | NCI-H23 83.6 µM | SF-295 > 100 µM | UACC-62 33 µM | SR 46.1 µM

CCNC(=O)CCN(C(=O)O)S(=O)(=O)c1ccc(NC(=O)c2ccccc2)cc1
inactive: A498 > 100 µM | SF-539 > 100 µM | UO-31 > 100 µM | HOP-62 > 100 µM | Malme-3M > 100 µM | SNB-75 > 100 µM | MOLT-4 > 100 µM | U-251 > 100 µM | ACHN > 100 µM | SF-268 > 100 µM | NCI-H23 > 100 µM | SF-295 > 100 µM | UACC-62 > 100 µM | SR > 100 µM

CC(=O)O[C@H]1CC[C@@]2(C)C(=CC[C@H]3C4=CC=C(C(C)=O)[C@@]4(C)CCC32)C1 (stereo partly specified)
inactive: A498 32.4 µM | SF-539 47 µM | RXF 393 26.5 µM | UO-31 43.7 µM | HOP-62 > 100 µM | Malme-3M 31.9 µM | SNB-75 31.1 µM | MOLT-4 11.4 µM | U-251 35.7 µM | ACHN 34.1 µM | SF-268 32.4 µM | SF-295 41 µM | UACC-62 18.8 µM | SR 19.6 µM

COc1ccc(OC(C)C(=O)O)c2c(=O)ccccc12 (stereo unspecified)
inactive: A498 > 100 µM | SF-539 > 100 µM | RXF 393 > 100 µM | UO-31 > 100 µM | HOP-62 > 100 µM | Malme-3M > 100 µM | SNB-75 > 100 µM | MOLT-4 > 100 µM | U-251 > 100 µM | ACHN > 100 µM | SF-268 > 100 µM | NCI-H23 > 100 µM | SF-295 > 100 µM | UACC-62 > 100 µM | SR > 100 µM

CC(=O)N(C)C=C1C(=O)N(C)C(=O)N(C)C1=O
inactive: A498 > 100 µM | SF-539 > 100 µM | RXF 393 > 100 µM | UO-31 > 100 µM | Malme-3M > 100 µM | SNB-75 > 100 µM | MOLT-4 > 100 µM | U-251 > 100 µM | ACHN > 100 µM | NCI-H23 > 100 µM | SF-295 > 100 µM | UACC-62 > 100 µM | SR > 100 µM

NC(=O)c1ncn2c1NCC1OC2C(O)C1O (stereo unspecified)
inactive: A498 > 100 µM | SF-539 > 100 µM | RXF 393 > 100 µM | UO-31 > 100 µM | HOP-62 > 100 µM | Malme-3M > 100 µM | SNB-75 > 100 µM | MOLT-4 > 100 µM | U-251 > 100 µM | ACHN > 100 µM | SF-268 > 100 µM | NCI-H23 > 100 µM | SF-295 > 100 µM | UACC-62 > 100 µM | SR > 100 µM
